# Structures can show the parent of a compound that is named as a salt.
# Molecular target: T1, CFTR channel in human colonic T84 cells (Homo sapiens, UniProt P13569)
# T1 construct: results in the phosphorylation and opening of CFTR anion channels; host or cells: human colonic T84 cells
# Assay: T84 assay (FLIPR membrane potential dye, forskolin/IBMX-stimulated CFTR)
# Assay type: cell-based
# Conditions: average of at least 2 runs unless annotated n = 1
# Description: (§1) For example, Human colonic T84 cells can be acquired from the European Collection of Cell Cultures (ECACC) and grown in standard culture conditions as described by the supplier. On the day before assay 25,000 T84 cells per well are plated into standard black walled, clear bottom 384-well assay plates in standard growth medium consisting of DMEM:F12 with 10% FBS and incubated overnight. On the day of the assay the plates are washed using a standard assay buffer (HBSS with 10 mM Hepes) and incubated for 15 minutes in serum free cell culture medium before the addition of a commercially available membrane potential sensitive fluorescent dye (FLIPR Red membrane potential dye, Molecular Devices Corporation). T84 cells are incubated with the FLIPR Red membrane potential dye for 45 minutes in the presence and absence of test compound before being transferred to a commercially available fluorescence imaging plate reader (FLIPR384, Molecular Devices Corporation). Fluorescence levels are monitored continuously every second for 150 seconds; after an initial 10 second baseline, CFTR channel activity is stimulated through the addition of 10 μM forskolin in the presence of 100 μM of the phosphodiesterase inhibitor iso-butyl-methylxanthine (IBMX). Addition of the forskolin leads to the activation of intracellular adenylyl cylase 1, elevating cAMP levels and results in the phosphorylation and opening of CFTR anion channels. CFTR channel opening causes chloride ion efflux and subsequent depolarization of the cells, which is measured by an increase in fluorescence. CFTR inhibitor compounds prevent cell depolarization and the associated increase in fluorescence.
# as §1, with “Human colonic” for “For example, Human colonic”, “T84 cells are acquired from” for “T84 cells can be acquired from”, “(ECACC) and are grown in” for “(ECACC) and grown in”
# T1 sequence (P13569 whole entry): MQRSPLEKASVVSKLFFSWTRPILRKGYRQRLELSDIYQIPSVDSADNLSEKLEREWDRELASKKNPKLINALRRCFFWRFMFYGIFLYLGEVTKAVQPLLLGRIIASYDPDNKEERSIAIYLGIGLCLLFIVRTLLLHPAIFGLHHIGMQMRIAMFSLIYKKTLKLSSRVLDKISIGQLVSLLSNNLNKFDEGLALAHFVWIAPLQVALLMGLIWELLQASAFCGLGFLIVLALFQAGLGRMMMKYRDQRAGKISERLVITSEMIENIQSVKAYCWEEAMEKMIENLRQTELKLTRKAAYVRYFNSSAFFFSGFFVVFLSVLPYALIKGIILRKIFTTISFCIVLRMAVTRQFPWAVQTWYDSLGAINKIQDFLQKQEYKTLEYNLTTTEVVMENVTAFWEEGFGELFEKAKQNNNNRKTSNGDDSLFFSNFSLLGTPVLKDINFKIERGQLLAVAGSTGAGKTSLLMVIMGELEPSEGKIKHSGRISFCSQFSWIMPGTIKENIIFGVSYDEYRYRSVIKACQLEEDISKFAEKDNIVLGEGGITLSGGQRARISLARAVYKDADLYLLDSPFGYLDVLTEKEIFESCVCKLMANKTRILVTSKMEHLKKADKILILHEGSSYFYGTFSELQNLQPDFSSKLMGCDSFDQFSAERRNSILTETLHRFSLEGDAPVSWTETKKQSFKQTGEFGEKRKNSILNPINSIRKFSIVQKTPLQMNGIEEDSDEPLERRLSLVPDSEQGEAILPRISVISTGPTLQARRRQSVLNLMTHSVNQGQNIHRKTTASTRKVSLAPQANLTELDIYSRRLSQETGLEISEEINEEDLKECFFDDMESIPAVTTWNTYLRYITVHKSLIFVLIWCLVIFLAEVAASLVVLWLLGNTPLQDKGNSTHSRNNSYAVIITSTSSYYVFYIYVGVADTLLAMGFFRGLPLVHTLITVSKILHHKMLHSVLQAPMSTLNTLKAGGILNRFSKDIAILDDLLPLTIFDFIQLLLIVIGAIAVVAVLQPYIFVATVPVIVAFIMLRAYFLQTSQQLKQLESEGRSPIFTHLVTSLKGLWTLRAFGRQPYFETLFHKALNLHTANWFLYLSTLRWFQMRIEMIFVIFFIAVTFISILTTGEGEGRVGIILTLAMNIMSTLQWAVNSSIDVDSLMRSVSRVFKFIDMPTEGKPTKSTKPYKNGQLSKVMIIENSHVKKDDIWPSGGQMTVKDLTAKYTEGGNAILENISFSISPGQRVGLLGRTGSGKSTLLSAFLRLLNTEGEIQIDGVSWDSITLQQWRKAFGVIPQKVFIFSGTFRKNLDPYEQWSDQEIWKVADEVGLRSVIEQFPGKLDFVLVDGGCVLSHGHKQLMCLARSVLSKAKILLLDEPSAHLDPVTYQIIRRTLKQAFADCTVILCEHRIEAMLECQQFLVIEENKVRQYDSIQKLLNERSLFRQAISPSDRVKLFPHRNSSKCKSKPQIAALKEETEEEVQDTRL
row,IC50 [µM],Compound
1,0.26,"Oc1c(Br)cc(-c2cnc(OCCc3cccc4ccccc34)nn2)cc1Br [Compound 1, 2,6-dibromo-4-(3-(2-(naphthalen-1-yl)ethoxy)-1,2,4-triazin-6-yl)phenol]"
2,14.2,"Oc1c(Cl)cc(-c2cnc(OCc3ccc(CN4CCN(Cc5cccnc5)CC4)cc3)nn2)cc1Cl [Compound 158, 2,6-dichloro-4-(3-(4-((4-(pyridin-3-ylmethyl)piperazin-1-yl)methyl)benzyloxy)-1,2,4-triazin-6-yl)phenol]"
3,9.94,"CN(C)CCOc1ccc(CN(C)Cc2ccc(COc3ncc(-c4cc(Cl)c(O)c(Cl)c4)nn3)cc2)cc1 [Compound 198, 2,6-dichloro-4-(3-(4-(((4-(2-(dimethylamino)ethoxy)benzyl)(methyl)amino)methyl)benzyloxy)-1,2,4-triazin-6-yl)phenol]"
4,15.4,"CC1(C)Cc2cccc(OCc3ncc(-c4cc(Cl)c(O)c(Cl)c4)nn3)c2O1 [Compound 50, 2,6-dichloro-4-(3-((2,2-dimethyl-2,3-dihydrobenzofuran-7-yloxy)methyl)-1,2,4-triazin-6-yl)phenol]"
5,2.46,"CN(Cc1ccc(F)cc1)Cc1ccc(COc2ncc(-c3cc(Cl)c(O)c(Cl)c3)nn2)cc1 [Compound 165, 2,6-dichloro-4-(3-(4-(((4-fluorobenzyl)(methyl)amino)methyl)benzyloxy)-1,2,4-triazin-6-yl)phenol]"
6,0.61,"Oc1c(Br)cc(-c2cnc(OCCCc3ccc(Cl)cc3)nn2)cc1Br [Compound 95, 2,6-dibromo-4-(3-(3-(4-chlorophenyl)propoxy)-1,2,4-triazin-6-yl)phenol]"
7,3.36,"OCCN(Cc1ccc(COc2ncc(-c3cc(Cl)c(O)c(Cl)c3)nn2)cc1)Cc1ccccc1Cl [Compound 172, 2,6-dichloro-4-(3-(4-(((2-chlorobenzyl)(2-hydroxyethyl)amino)methyl)benzyl-ozyloxy)-1,2,4-triazin-6-yl)phenol]"
8,8.88,"Oc1c(Cl)cc(-c2cnc(OCc3ccc(CN4CCN(CCc5ccccc5)CC4)cc3)nn2)cc1Cl [Compound 152, 2,6-dichloro-4-(3-(4-((4-phenethylpiperazin-1-yl)methyl)benzyloxy)-1,2,4-triazin-6-yl)phenol]"
9,14.7,"Cc1cc(OCc2ncc(-c3cc(Br)c(O)c(Br)c3)nn2)cc(C)c1Cl [Compound 47, 2,6-dibromo-4-(3-((4-chloro-3,5-dimethylphenoxy)methyl)-1,2,4-triazin-6-yl)phenol]"
10,1.56,"Oc1c(Cl)cc(-c2cnc(OCc3ccc(OC(F)(F)F)cc3)nn2)cc1Cl [Compound 154, 2,6-dichloro-4-(3-(4-(trifluoromethoxy)benzyloxy)-1,2,4-triazin-6-yl)phenol]"
11,12.7,"C=CCc1ccccc1OCc1ncc(-c2cc(Br)c(O)c(Br)c2)nn1 [Compound 44, 4-(3-((2-allylphenoxy)methyl)-1,2,4-triazin-6-yl)-2,6-dibromophenol]"
12,10.9,"Cc1cc(Cl)ccc1OCc1ncc(-c2cc(Br)c(O)c(Br)c2)nn1 [Compound 39, 2,6-dibromo-4-(3-((4-chloro-2-methylphenoxy)methyl)-1,2,4-triazin-6-yl)phenol]"
13,0.61,"Oc1c(Cl)cc(-c2cnc(OCCc3ccc(Br)cc3)nn2)cc1Cl [Compound 117, 4-(3-(4-bromophenethoxy)-1,2,4-triazin-6-yl)-2,6-dichlorophenol]"
14,13.1,"Oc1c(Cl)cc(-c2cnc(NCc3cccc(Cl)c3Cl)nn2)cc1Cl [Compound 121, 2,6-Dichloro-4-(3-(2,3-dichlorobenzylamino)-1,2,4-triazin-6-yl)phenol]"
15,2.43,"CN(C)CCCOc1cccc(CN(C)Cc2ccc(COc3ncc(-c4cc(Cl)c(O)c(Cl)c4)nn3)cc2)c1 [Compound 204, 2,6-dichloro-4-(3-(4-(((3-(3-(dimethylamino)propoxy)benzyl)(methyl)amino)methyl)benzyl-oxy)-1,2,4-triazin-6-yl)phenol]"
16,5.89,"CN(Cc1ccc(COc2ncc(-c3cc(Cl)c(O)c(Cl)c3)nn2)cc1)Cc1cccc(CN2CCOCC2)c1 [Compound 200, 2,6-dichloro-4-(3-(4-((methyl(3-(morpholinomethyl)benzyl)amino)methyl)benzyloxy)-1,2,4-triazin-6-yl)phenol]"
17,3.81,"Oc1c(Cl)cc(-c2cnc(OCc3ccc(CNCc4cccc(Cl)c4Cl)cc3)nn2)cc1Cl [Compound 141, 2,6-dichloro-4-(3-(4-((2,3 —dichlorobenzylamino)methyl)benzyloxy)-1,2,4-triazin-6-yl)phenol]"
18,9.65,"Oc1c(Cl)cc(-c2cnc(NCc3ccc(Cl)cc3Cl)nn2)cc1Cl [Compound 134, 2,6-dichloro-4-(3-(2,4-dichlorobenzylamino)-1,2,4-triazin-6-yl)phenol, formate salt]"
19,22.9,"Oc1c(Br)cc(-c2cnc(COc3ccc(-c4ccccc4)cc3)nn2)cc1Br [Compound 55, 4-(3-((biphenyl-4-yloxy)methyl)-1,2,4-triazin-6-yl)-2,6-dibromophenol]"
20,4.8,"Cc1cncc(Oc2ccc(CN(C)Cc3ccc(COc4ncc(-c5cc(Cl)c(O)c(Cl)c5)nn4)cc3)cc2)n1 [Compound 209, 2,6-dichloro-4-(3-(4-((methyl(4-(6-methylpyrazin-2-yloxy)benzyl)amino)methyl)benzyloxy)-1,2,4-triazin-6-yl)phenol]"
21,7.77,"Oc1c(Br)cc(-c2cnc(C(O)(c3ccc(Cl)cc3)c3ccc(Cl)cc3)nn2)cc1Br [Compound 100, 4-(3-(bis(4-chlorophenyl)(hydroxy)methyl)-1,2,4-triazin-6-yl)-2,6-dibromophenol]"
22,23.2,"CC(=O)N1CCN(Cc2ccc(COc3ncc(-c4cc(Cl)c(O)c(Cl)c4)nn3)cc2)CC1 [Compound 216, 1-(4-(4-((6-(3,5-dichloro-4-hydroxyphenyl)-1,2,4-triazin-3-yloxy)methyl)benzyl)piperazin-1-yl)ethanone]"
23,11.1,"Oc1c(Br)cc(-c2cnc(COc3cc(Cl)ccc3Cl)nn2)cc1Br [Compound 43, 2,6-dibromo-4-(3-((2,5-dichlorophenoxy)methyl)-1,2,4-triazin-6-yl)phenol]"
24,9.6,"CN(Cc1ccc(COc2ncc(-c3cc(Cl)c(O)c(Cl)c3)nn2)cc1)Cc1cccc(-c2cncnc2)c1 [Compound 206, 2,6-dichloro-4-(3-(4-((methyl(3-(pyrimidin-5-yl)benzyl)amino)methyl)benzyl-oxy)-1,2,4-triazin-6-yl)phenol]"
25,21.3,"CN1CCN(c2ccc(CNc3ncc(-c4cc(Cl)c(O)c(Cl)c4)nn3)cc2)CC1 [Compound 137, 2,6-dichloro-4-(3-(4-(4-methylpiperazin-1-yl)benzylamino)-1,2,4-triazin-6-yl)phenol, formate salt]"
26,28.5,"Oc1c(Cl)cc(-c2cnc(OCc3ccc(CNCc4ccc(F)cc4)cc3)nn2)cc1Cl [Compound 164, 2,6-dichloro-4-(3-(4-((4-fluorobenzylamino)methyl)benzyloxy)-1,2,4-triazin-6-yl)phenol]"
27,9.99,"CN1CCCN(Cc2ccc(CN(C)Cc3ccc(COc4ncc(-c5cc(Cl)c(O)c(Cl)c5)nn4)cc3)cc2)CC1 [Compound 201, 2,6-dichloro-4-(3-(4-((methyl(4-((4-methyl-1,4-diazepan-1-yl)methyl)benzyl)amino)methyl)benzyloxy)-1,2,4-triazin-6-yl)phenol]"
28,2.66,"CN(Cc1ccccc1)Cc1ccc(COc2ncc(-c3cc(Cl)c(O)c(Cl)c3)nn2)cc1 [Compound 163, 4-(3-(4-((benzyl(methyl)amino)methyl)benzyloxy)-1,2,4-triazin-6-yl)-2,6-dichlorophenol]"
29,11.6,"Cc1ccc(Cl)c(OCc2ncc(-c3cc(Br)c(O)c(Br)c3)nn2)c1 [Compound 34, 2,6-dibromo-4-(3-((2-chloro-5-methylphenoxy)methyl)-1,2,4-triazin-6-yl)phenol]"

row,Compound,IC50 [µM]
1,"Oc1c(Br)cc(-c2cnc(OCc3ccc(Cl)cc3)nn2)cc1Br [Compound 20, 2,6-dibromo-4-(3-(4-chlorobenzyloxy)-1,2,4-triazin-6-yl)phenol]",0.85
2,"Oc1c(Cl)cc(-c2cnc(OCc3ccc(CN4CCC(O)(c5ccccc5)CC4)cc3)nn2)cc1Cl [Compound 173, 1-(4-((6-(3,5-dichloro-4-hydroxyphenyl)-1,2,4-triazin-3-yloxy)methyl)benzyl)-4-phenylpiperidin-4-ol]",28.4
